Read-outs that look alike come from different tables or passages of the source.
Target: T1, mTLR9 (Mus musculus, UniProt Q9EQU3)
T1 construct: Splenocytes isolated from male C57/BL6 mice; from tissue; host or cells: splenocytes from the spleen of male C57BL/6 mice
T1 sequence (Q9EQU3 26-1032): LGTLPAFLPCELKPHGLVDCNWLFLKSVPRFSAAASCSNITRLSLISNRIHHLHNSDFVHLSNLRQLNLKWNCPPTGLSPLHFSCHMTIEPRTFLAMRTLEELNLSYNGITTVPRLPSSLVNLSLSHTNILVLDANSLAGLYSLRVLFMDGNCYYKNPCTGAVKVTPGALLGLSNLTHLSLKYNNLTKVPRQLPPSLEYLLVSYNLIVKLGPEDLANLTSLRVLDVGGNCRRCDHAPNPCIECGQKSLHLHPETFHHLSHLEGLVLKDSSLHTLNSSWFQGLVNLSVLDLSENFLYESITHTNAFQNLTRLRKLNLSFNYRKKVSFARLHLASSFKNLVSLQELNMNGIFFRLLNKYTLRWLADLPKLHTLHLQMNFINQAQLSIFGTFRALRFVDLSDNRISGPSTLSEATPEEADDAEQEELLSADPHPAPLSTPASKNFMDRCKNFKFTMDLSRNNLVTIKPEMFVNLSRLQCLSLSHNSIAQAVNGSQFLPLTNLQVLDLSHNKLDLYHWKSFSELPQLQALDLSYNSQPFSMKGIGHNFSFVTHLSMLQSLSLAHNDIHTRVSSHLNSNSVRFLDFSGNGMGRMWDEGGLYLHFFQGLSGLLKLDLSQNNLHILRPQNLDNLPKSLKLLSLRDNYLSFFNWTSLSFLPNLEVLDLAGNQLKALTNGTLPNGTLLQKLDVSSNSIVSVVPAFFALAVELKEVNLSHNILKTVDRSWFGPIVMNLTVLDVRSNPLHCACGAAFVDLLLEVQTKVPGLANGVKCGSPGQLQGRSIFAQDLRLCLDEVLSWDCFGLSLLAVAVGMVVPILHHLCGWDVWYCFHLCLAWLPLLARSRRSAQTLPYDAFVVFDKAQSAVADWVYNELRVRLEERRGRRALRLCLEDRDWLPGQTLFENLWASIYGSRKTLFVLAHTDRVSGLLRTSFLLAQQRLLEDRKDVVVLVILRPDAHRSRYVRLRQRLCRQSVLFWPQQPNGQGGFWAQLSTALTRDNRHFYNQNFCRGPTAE
Assay: mTLR9 antagonism (IL-6 and TNF-α release assay) in mouse splenocytes, CpG ODN-2006 stimulated
Format: cell-based
Text: mTLR9 and mTLR7 Antagonism (Cytokine Release Assay) in Mouse Splenocytes
TLR7 ligand R0006 (IDT, 5′-rU*rU*rG*rU*rU*rG*rU*rU*rG*rU*rU*rG*rU*rU*rG*rU*rU*rG*rU*rU-3′ (SEQ ID NO:1)), Liposomal transfection reagent—DOTAP (Roche, Cat. No. 11202375001), TLR9 ligand CpG ODN2006 (Sequence: T*C*G*T*C*G*T*T*T*T*G*T*C*G*T*T*T*T*G*T*C*G*T*T; *=phosphorothioate (SEQ ID NO:2)) DMSO (Sigma, D2650), RPMI Powder (Sigma, R6504), Fetal Bovine Serum (Gibco, 10270), Dulbecco's Phosphate Buffered Saline (Sigma, D1408), 96 well plate (Flat bottom, Costar 3599), ELISA kit for IL-6 (EBioscience, 88-7064-77 and TNFa (EBioscience, 88-7346-88), MACS Buffer (AutoMACS Rinsing Solution (Miltenyl Biotec, 130-091-222)+0.05% BSA), RBC lysis buffer (0.85% NH4Cl), 40 μm cell strainer (BD Falcon, 352340) Method: A. Isolation of Mouse Splenocytes
Mouse spleen was isolated from C57BL6 mouse and stored in 1× chilled PBS buffer until further processed. Spleen was transferred to a sterile petriplate and chopped in to 5-6 pieces in presence of MACS buffer (100 μl) with the help of fresh surgical blade and crushed with flat plunger of a sterile syringe. A uniform suspension was prepared by passing cells through a 40 μm cell strainer. Cells were centrifuged at 450×g for 5 minutes at 4° C., supernatant was discarded and pellet dislodged gently, resuspended in 2 ml of pre-warmed (37° C.) RBC lysis buffer at room temperature with continuous gentle mixing with 1 ml pipette. Lysis buffer was neutralized with 12 ml of chilled MACS buffer and cells were passed through 40 μm cell strainer. Cell suspension was collected in 15 ml MACS buffer and centrifuged at 450×g for 5 minutes at 4° C. Pellet was resuspended in 15 ml MACS buffer and centrifuged at 400×g for 5 minutes. Cells were resuspended in 10 ml of RPMI complete medium and viability was estimated by Trypan blue method.
mTLR9 Antagonism (IL-6 and TNF-α Release Assay):
500 μM stock of CpG ODN-2006 was prepared in sterile, endotoxin-free water. Dilutions of 10× concentrations of NCEs were prepared in incomplete RPMI media, maintaining a final DMSO concentration of 0.3%. NCEs were added in a concentration range of 30 μM to 1 nM in respective wells of assay plate, assay medium containing 0.3% DMSO were added to control wells. 0.2 million splenocytes were added to all the wells and incubated at 37° C. in 5% CO2 incubator for 30 minutes. 1 μg/ml of respective agonist was added to all the wells except those were assigned as negative controls and mixed thoroughly. Incomplete RPMI was added to negative control wells and incubated overnight at 37° C./5% CO2. The plate was centrifuged at 450×g for 5 minutes at room temperature and the supernatant was collected. ELISA was performed as per manufacturer's protocol. S/B Ratio, % Activity and % Inhibition was calculated using MS Excel. IC50 and inhibition curve was generated using Graph Pad Prism.

[1] = 1 μM, IL-6 release, mouse splenocytes, read-out: mTLR9 inhibitory activity (% at 1 μM), IL-6
[2] = 1 μM, TNF-α release, mouse splenocytes, read-out: mTLR9 inhibitory activity (% at 1 μM), TNF-α

SMILES | inhibition at 1 µM [1] | inhibition at 1 µM [2] | inhibition at 1 µM (read-out: mTLR9 inhibitory activity (% at 1 μM), IL-6) | inhibition at 1 µM (read-out: mTLR9 inhibitory activity (% at 1 μM), TNF-α)
c1cc2[nH]c(CN3CCOCC3)cc2c(-c2ccc(N3CCN(C4COC4)CC3)cc2)n1 [Example A81, 4-[[4-[4-[4-(oxetan-3-yl)piperazin-1-yl]phenyl]-1H-pyrrolo[3,2-c]pyridin-2-yl]methyl]morpholine] | 37% | 20% |  | 
CC(C)N1CCN(c2ccc(-c3nccc4[nH]c(C(=O)N5CCOCC5)cc34)cc2)CC1 [Example A82, [4-[4-(4-isopropylpiperazin-1-yl)phenyl]-1H-pyrrolo[3,2-c]pyridin-2-yl]-morpholino-methanone] |  |  | 100% | 52%
CC(C)N1CCN(c2ccc(-c3nccc4[nH]c(CCN5CCOCC5)cc34)cc2)CC1 [Example B1, 4-[2-[4-[4-(4-isopropylpiperazin-1-yl)phenyl]-1H-pyrrolo[3,2-c]pyridin-2-yl]ethyl]morpholine] | 100% | 100% |  | 
CN1CCN(c2ccc(-c3nccc4[nH]c(CCN5CCOCC5)cc34)cc2)CC1 [Example B2, 4-[2-[4-[4-(4-methylpiperazin-1-yl)phenyl]-1H-pyrrolo[3,2-c]pyridin-2-yl]ethyl]morpholine] | 100% | 95% |  | 
Cc1cc2[nH]c(CCN3CCOCC3)cc2c(-c2ccc(N3CCN(C(C)C)CC3)cc2)n1 [Example B3, 4-[2-[4-[4-(4-isopropylpiperazin-1-yl)phenyl]-6-methyl-1H-pyrrolo[3,2-c]pyridin-2-yl]ethyl]morpholine] | 100% | 100% |  | 
Cc1cc2[nH]c(CCN3CCOCC3)cc2c(-c2ccc(N3CCN(C)CC3)cc2)n1 [Example B4, 4-[2-[6-methyl-4-[4-(4-methylpiperazin-1-yl)phenyl]-1H-pyrrolo[3,2-c]pyridin-2-yl]ethyl]morpholine] |  | 100% |  | 
Cc1cc2[nH]c(CCN3CCCCC3)cc2c(-c2ccc(N3CCN(C(C)C)CC3)cc2)n1 [Example B5, 4-[4-(4-isopropylpiperazin-1-yl)phenyl]-6-methyl-2-[2-(1-piperidyl)ethyl]-1H-pyrrolo[3,2-c]pyridine] |  | 100% |  | 
Cc1nc(-c2ccc(N3CCN(C(C)C)CC3)cc2)c2cc(CCN3CCOCC3)[nH]c2c1C [Example B6, 4-[2-[4-[4-(4-isopropylpiperazin-1-yl)phenyl]-6,7-dimethyl-1H-pyrrolo[3,2-c]pyridin-2-yl]ethyl]morpholine] | 100% | 100% |  | 
Cc1nc(-c2ccc(N3CCN(C)CC3)cc2)c2cc(CCN3CCOCC3)[nH]c2c1C [Example B7, 4-[2-[6,7-dimethyl-4-[4-(4-methylpiperazin-1-yl)phenyl]-1H-pyrrolo[3,2-c]pyridin-2-yl]ethyl]morpholine] |  | 100% |  | 
CCN1CCN(c2ccc(-c3nc(C)c(C)c4[nH]c(CCN5CCOCC5)cc34)cc2)CC1 [Example B8, 4-[2-[4-[4-(4-ethylpiperazin-1-yl)phenyl]-6,7-dimethyl-1H-pyrrolo[3,2-c]pyridin-2-yl]ethyl]morpholine] |  | 93% |  | 
Cc1nc(-c2ccc(N3CCN(C(C)C)CC3)cc2)c2cc(CCN3CCCC3)[nH]c2c1C [Example B10, 4-[4-(4-isopropylpiperazin-1-yl)phenyl]-6,7-dimethyl-2-(2-pyrrolidin-1-ylethyl)-1H-pyrrolo[3,2-c]pyridine] | 100% | 100% |  | 
Cc1cc2c(cc(CCN3CCOCC3)n2C)c(-c2ccc(N3CCN(C(C)C)CC3)cc2)n1 [Example B11, 4-[2-[4-[4-(4-isopropylpiperazin-1-yl)phenyl]-1,6-dimethyl-pyrrolo[3,2-c]pyridin-2-yl]ethyl]morpholine] | 100% | 100% |  | 
Cc1cc2c(cc(CCN3CCOCC3)n2C)c(-c2ccc(N3CCN(C(C)C)CC3)cc2F)n1 [Example B19, 4-[2-[4-[2-fluoro-4-(4-isopropylpiperazin-1-yl)phenyl]-1,6-dimethyl-pyrrolo[3,2-c]pyridin-2-yl]ethyl]morpholine] | 100% | 100% |  | 
Cc1cc2c(cc(CCN3CCOCC3)n2C)c(-c2cccc(N3CCN(C(C)C)CC3)c2)n1 [Example B21, 4-[2-[4-[3-(4-isopropylpiperazin-1-yl)phenyl]-1,6-dimethyl-pyrrolo[3,2-c]pyridin-2-yl]ethyl]morpholine] | 100% | 100% |  | 
COc1cc(-c2nc(C)cc3c2cc(CCN2CCOCC2)n3C)ccc1N1CCN(C(C)C)CC1 [Example B22, 4-[2-[4-[4-(4-isopropylpiperazin-1-yl)-3-methoxy-phenyl]-1,6-dimethyl-pyrrolo[3,2-c]pyridin-2-yl]ethyl]morpholine] | 100% | 92% |  | 
Cc1cc2c(cc(CCN3CCOCC3)n2C)c(C2CCC(N3CCN(C(C)C)CC3)CC2)n1 (stereo not shown) [Example B27, 4-[2-[4-[4-(4-isopropylpiperazin-1-yl)cyclohexyl]-1,6-dimethyl-pyrrolo[3,2-c]pyridin-2-yl]ethyl]morpholine] | 100% | 72% |  | 
Cc1cc2c(cc(CCN3CCOCC3)n2C)c(-c2ccc(C3CCN(C(C)C)CC3)cc2)n1 [Example B31, 4-[2-[4-[4-(1-isopropyl-4-piperidyl)phenyl]-1,6-dimethyl-pyrrolo[3,2-c]pyridin-2-yl]ethyl]morpholine] | 100% | 92% |  | 
CC(C)N1CCN(c2ccc(-c3nccc4[nH]c(CCCN5CCOCC5)cc34)cc2)CC1 [Example C1, 4-[3-[4-[4-(4-isopropylpiperazin-1-yl)phenyl]-1H-pyrrolo[3,2-c]pyridin-2-yl]propyl]morpholine] |  | 100% |  | 
CN1CCN(c2ccc(-c3nccc4[nH]c(CCCN5CCOCC5)cc34)cc2)CC1 [Example C2, 4-[3-[4-[4-(4-methylpiperazin-1-yl)phenyl]-1H-pyrrolo[3,2-c]pyridin-2-yl]propyl]morpholine] |  | 100% |  | 
Cc1cc2[nH]c(CCCN3CCOCC3)cc2c(-c2ccc(N3CCN(C(C)C)CC3)cc2)n1 [Example C3, 4-[3-[4-[4-(4-isopropylpiperazin-1-yl)phenyl]-6-methyl-1H-pyrrolo[3,2-c]pyridin-2-yl]propyl]morpholine] | 100% | 100% |  | 
